Test results as given in US20050037975A1, “Method for treatment of glutamate related disorders” (priority 1997, published 2005).
“And” between values parts separate entries of the source, which are not always exact repeats. Equal values may be shown once. Marks after values point to notes of the source that are not given here.

Experiments:
[1] = molecular target: T1, rat liver mitochondrial low Km ALDH (Rattus norvegicus, UniProt P11884); test: Liver aldehyde dehydrogenase determined in vivo; conditions: intraperitoneal (IP), liver taken eight hours later
T1 construct: differential centrifugation carried out to isolate the mitochondrial faction; from tissue; host or cells: liver mitochondria of male Sprague-Dawley derived rats
T1 sequence (P11884 20-519): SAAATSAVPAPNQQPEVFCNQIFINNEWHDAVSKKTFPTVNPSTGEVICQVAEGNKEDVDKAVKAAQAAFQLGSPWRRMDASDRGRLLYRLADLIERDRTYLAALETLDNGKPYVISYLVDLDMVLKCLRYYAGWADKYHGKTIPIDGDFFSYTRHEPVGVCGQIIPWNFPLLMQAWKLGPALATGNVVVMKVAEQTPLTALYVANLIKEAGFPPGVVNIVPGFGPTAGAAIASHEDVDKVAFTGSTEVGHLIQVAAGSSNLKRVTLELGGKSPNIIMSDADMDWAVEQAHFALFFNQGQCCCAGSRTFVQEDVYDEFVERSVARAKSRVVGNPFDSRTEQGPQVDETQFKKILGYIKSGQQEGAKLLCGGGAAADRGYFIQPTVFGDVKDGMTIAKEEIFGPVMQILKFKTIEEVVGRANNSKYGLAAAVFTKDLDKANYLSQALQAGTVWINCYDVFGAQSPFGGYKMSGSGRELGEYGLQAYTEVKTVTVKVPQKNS
Protocol: To determine if a compound of formula (I) can inhibit aldehyde dehydrogenase activity in vivo, doses of DETC-Me SO (1.3 mg/kg, 2.6 mg/kg, 5.2 mg/kg, 10.3 mg/kg and 20.6 mg/kg), were administered to male Sprague Dawley derived rats weighing 200-400 g. The rats were bred from a resident colony maintained in the Animal Care Unit at the University of Kansas. Rats were maintained on a 12-hour lights cycle with access to food and water ad lib until the night before an experiment, at which time food was removed. Animals were fasted for 12 hours prior to drug administration.
All experiments were carried out in the morning. Rats were treated with the doses of DETC-Me SO or DETC-Me described above, which were dissolved in polyethylene glycol 200. Eight hours later, the rats were anesthetized with carbon-dioxide and then decapitated. The liver was quickly removed and the low Km aldehyde dehydrogenase determined. Control rats were treated with […] vehicle only, and each control data point also represents an average of four rats.
The liver from drug-treated and control rats was homogenized in 0.25 M sucrose and differential centrifugation was carried out to isolate the mitochondrial fraction. The mitochondria were solubilized with sodium deoxycholate, and mitochondrial low Km and total (high and low) aldehyde dehydrogenase activity determined by the method of S. O. C. Tottmar et al., cited above.

[2] = tested on: ALDH2; test: In vitro inactivation of aldehyde dehydrogenase; type: biochemical
Protocol: To test whether the protective effect of DETC-MeSO in hyperbaric O2-induced convulsions in mice could be due to inhibition of succinic semi-aldehyde dehydrogenase (SSA DH), mechanistically related to ALDH2, the sensitivity of SSA DH to inactivation by DETC-MeSO was determined. Potentially, inhibition of SSA DH in brain could offset the build up of ammonia known to occur and produce more GABA. In vitro both ALDH2 and SSA DH are inactivated by DETC-MeSO at 47 M-1 s-1 and 300 M-1 s-1, respectively.

[3] = tested on: brain glutamate receptors (synaptic membranes); test: [3H]glutamate binding to mouse brain synaptic membranes in vitro
Protocol: Binding Studies—Synaptic membranes (100 μg protein) were isolated (Y. H. Lee et al., J. Neurosci. Res. 40, 797-806 (1995)) form whole brain homogenate of male Swiss Webster mice and were incubated in 0.1 mM L-glutamate for 30 minutes at 25° C. After addition of 50 nM of [^3H]glutamate, incubation was continued for an additional 45 minutes. Reactions were terminated by centrifugation at 4° C. to separate membrane-bound from free radioactivity. […] The rate (k) and maximum percent blockage of glutamate binding (M) by DETC-MeSO (1) during the incubation time (t) was determined by fitting the equation [% inhibition]=M(1−e^−kh) to these day by use of the program Grafit (Erithicus Software Ltd.). This equation was derived for first-order inactivation by a group specific reagent that gives a partial effect. If “A” is the percent of binding activity that remains after extensive exposure (t=of the receptor to excess DETC-MeSO, then M=100−A)e^−kh+A; substituting (100−M) for “A” and [100−% inhibition] for “a” in this equation gives the one employed for purposes of data analyses. […] A second equation was employed in the analysis of binding data that defines partial, irreversible inactivation of two distinct groups of receptors [% inhibition]=M1(1−e^−k1^IT)+M2(1−e^−k1^IT), where M1 and M2 are the maximum amount of inhibition obtained for complete modification of each receptor population and k1 and k2 are the rate constants for these modifications, respectively.
Six determinations of the effect of DETC-MeSO were made at each concentration tested (1, 5, 10, 50, 100, 200, and 1000 μM) and the average value is shown with error bars for one standard deviation.

[4] = tested on: MetSOX-induced seizures; test: MetSOX-induced seizures in mice; type: in vivo
Protocol: (§1) Animals—Male Swiss Webster mice (20-30 g) or male Sprague-Dawley rats (250-300 g) were used. All that employed animals were conducted in strict compliance with the NIH guidelines on animal use and institutional regulations concerning animal experimentation. Animals were exposed to hyperbaric oxygen in a specify designed press chamber as previously described (M. D. Faiman et al., Biochem. Pharmacol., 20, 3049-3067 (1971); M. D. Faiman et al. Aerosp. Med.,45, 29032.(1974)). The time to first clonic-tonic seizure after brining animals to a final pressure of five atmospheres of 100% oxygen or after intraperitoneal injection of convulsants was noted by. criteria outlined previously (M. D. Faiman et al. (1971), supra M. D. Faiman et al. (1974), supra). Unless otherwise specified, the ability of DETC-MeSO to prevent seizures was tested by intraperitoneal injection of 5.2 mg/kg of DETC-MeSO 1-2 hours prior to bringing the animal to a final pressure of 5 atmospheres of 100% oxygen or intraperitoneal injection of N-methyl-D-asparate (NMA) (125 mg/kg) r L-methionine sulfoximine (MetSOX) (250 mg/kg). Evaluation of the statistics for whole animal experiments or for changes in brain glutamate binding after administration of DETC-MeSO was conducted by use of the program GraphPAD InStat from Graph PAD Software (San Diego, Calif.).

[5] = tested on: MetSOX-induced seizures; test: MetSOX-induced seizures in rats; type: in vivo
Protocol: as §1

[6] = double exponential fit, nominal values
[7] = MetSOX 250 mg/kg, 5.2 mg/kg i.p. 1-2 hours prior, ± standard error

- dose required to inhibit 50% of the low Km ALDH [1]: 3.6 mg/kg
- inactivation rate of ALDH2 ([2]; in vitro): 47 M⁻¹ s⁻¹
- rate for enzyme (ALDH) inactivation ([2]; under physiological conditions): 40 M⁻¹ s⁻¹
- inhibition of glutamate binding ([3]; 0.1 mM, absence of glycine (FIG. 2)): 53%
- irreversible blockage of glutamate binding ([3]; 0.1 mM, in the presence of glycine (0.1 mM)): 48±3%
- M1, maximum inhibition of first receptor population [3, 6]: 15%
- M2, maximum inhibition of second receptor population [3, 6]: 43%
- k1, rate constant of first receptor population [3, 6]: 900 M⁻¹ s⁻¹ and 901 M⁻¹ s⁻¹
- k2, rate constant of second receptor population [3, 6]: 8 M⁻¹ s⁻¹
- rate (k) of blockage of glutamate binding ([3]; single exponential fit): 25±10 M^−s^−1
- maximum percent blockage of glutamate binding (M) ([3]; single exponential fit, 1-1000 μM): 58±7%
SMILES: CCN(CC)C(=O)[S+](C)[O-] (stereo not drawn) [DETC-MeSO, S-Methyl-N,N-Diethylthiolcarbamate Sulfoxide]
- effect on glutamate binding to synaptic membrane preparations ([3]; in vitro, without glycine): time-dependent, partial, and irreversible loss of their ability to bind glutamate
- effect on time free of MetSOX seizures [4]: more than doubled
- mean time to seizure [4, 7]: 307 ± 60 min
- number of animals that exhibited the effect/total number of animals in the group ([4]; MetSOX 250 mg/kg, observation six hours): (6/8)^a
- effect on time free of MetSOX seizures [5]: more than doubled
- number of animals that exhibited the effect/total number of animals in the group ([5]; MetSOX 250 mg/kg): (4/4)
- mean time to seizure [5, 7]: 318 ± 60 min
